Results as given in patent US8329918B2, “Selective alpha 2B/2C agonists” (priority 2009, dated 2012).
Where two headings read alike, the source gives them in different places.

What was measured:
Format in all cases: cell-based
alpha2B receptor = target: T1, alpha2B receptor (Homo sapiens, UniProt P18089); assay: RSAT assay, alpha 2B; details: for (rel. efficacy) Alpha 2B: ratio of maximal effect to standard full agonist brimonidine (UK14304)
T1 construct: expressed in transfected cells; host or cells: NIH-3T3
T1 sequence (P18089 1-450): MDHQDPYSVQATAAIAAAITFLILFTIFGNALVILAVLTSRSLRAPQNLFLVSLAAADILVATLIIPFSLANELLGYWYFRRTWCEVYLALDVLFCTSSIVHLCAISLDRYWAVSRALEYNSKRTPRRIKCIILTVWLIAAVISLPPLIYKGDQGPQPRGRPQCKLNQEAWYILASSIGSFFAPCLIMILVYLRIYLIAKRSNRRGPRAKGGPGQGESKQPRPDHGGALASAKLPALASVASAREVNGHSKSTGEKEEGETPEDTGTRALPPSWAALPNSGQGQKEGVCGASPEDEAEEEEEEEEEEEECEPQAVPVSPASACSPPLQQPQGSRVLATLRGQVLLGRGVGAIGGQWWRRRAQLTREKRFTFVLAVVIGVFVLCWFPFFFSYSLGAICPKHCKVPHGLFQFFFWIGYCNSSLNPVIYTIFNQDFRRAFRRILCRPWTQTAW
Protocol: (§1) Selected presently described compounds were synthesized and tested for alpha adrenergic activity using the Receptor Selection and Amplification Technology (RSAT) assay. Cells expressing each of the alpha-2-adrenergic receptors alone were incubated with various compounds and a receptor-mediated growth response was measured. The compound's activity is expressed as its relative efficacy compared to a standard full agonist.
(§2) The RSAT assay measures a receptor-mediated loss of contact inhibition that results in selective proliferation of receptor-containing cells in a mixed population of confluent cells. The increase in cell number is assessed with an appropriate transfected marker gene such as β-galactosidase, the activity of which can be easily measured in a 96-well format. Receptors that activate the G protein, Gq, elicit this response. Alpha2 receptors, which normally couple to Gi, activate the RSAT response when coexpressed with a hybrid Gq protein that has a Gi receptor recognition domain, called Gq/i5.
(§3) NIH-3T3 cells are plated at a density of 2×10^6 cells in 15 cm dishes and maintained in Dulbecco's modified Eagle's medium supplemented with 10% calf serum. One day later, cells are cotransfected by calcium phosphate precipitation with mammalian expression plasmids encoding p-SV-β-galactosidase (5-10 μg), receptor (1-2 μg) and G protein (1-2 μg). 40 μg salmon sperm DNA may also be included in the transfection mixture. Fresh media is added on the following day and 1-2 days later, cells are harvested and frozen in 50 assay aliquots. Cells are thawed and […] added to […] aliquots of various concentrations of drugs in triplicate in 96-well dishes. Incubations continue 72-96 hr at 37° C. After washing with phosphatebuffered saline, β-galactosidase enzyme activity is determined by adding 200 μl of the chromogenic substrate (consisting of 3.5 mM o-nitrophenyl-β-D-galactopyranoside and 0.5% nonidet P-40 in phosphate buffered saline), incubating overnight at 30° C. and measuring optical density at 420 nm. The absorbance is a measure of enzyme activity, which depends on cell number and reflects a receptor-mediated cell proliferation. The EC50 and maximal effect of each drug at each alpha2 receptor is determined. The efficacy or intrinsic activity is calculated as a ratio of the maximal effect of the drug to the maximal effect of a standard full agonist for each receptor subtype. Brimonidine, also called UK14304, is used as the standard agonist for the alpha2A, alpha2B, and alpha2C receptors.
(§4) The compounds activity is expressed as its relative efficacy compared to a standard full agonist.

alpha2C receptor = target: T2, alpha2C receptor (Homo sapiens, UniProt P18825); assay: RSAT assay, alpha 2C; details: for (rel. efficacy) Alpha 2C: ratio of maximal effect to standard full agonist brimonidine (UK14304)
T2 construct: expressed in transfected cells; host or cells: NIH-3T3
T2 sequence (P18825 1-462): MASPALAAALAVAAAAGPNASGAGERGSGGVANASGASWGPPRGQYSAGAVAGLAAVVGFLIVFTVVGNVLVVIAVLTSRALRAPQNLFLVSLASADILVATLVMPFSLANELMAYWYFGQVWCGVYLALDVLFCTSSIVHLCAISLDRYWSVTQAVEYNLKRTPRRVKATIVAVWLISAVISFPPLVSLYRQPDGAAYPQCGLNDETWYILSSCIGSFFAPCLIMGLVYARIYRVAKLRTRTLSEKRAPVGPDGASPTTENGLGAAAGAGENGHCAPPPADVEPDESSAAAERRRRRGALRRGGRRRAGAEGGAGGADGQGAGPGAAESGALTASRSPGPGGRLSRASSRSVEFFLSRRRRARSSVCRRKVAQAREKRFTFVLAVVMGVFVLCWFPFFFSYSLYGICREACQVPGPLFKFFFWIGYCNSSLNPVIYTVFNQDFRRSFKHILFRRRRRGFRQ
Protocol: as §1, §2, §3, §4

alpha2A receptor = target: T3, alpha2A receptor (Homo sapiens, UniProt P08913); assay: RSAT assay, alpha 2A; details: for (rel. efficacy) Alpha 2A: ratio of maximal effect to standard full agonist brimonidine (UK14304)
T3 sequence (P08913 1-465): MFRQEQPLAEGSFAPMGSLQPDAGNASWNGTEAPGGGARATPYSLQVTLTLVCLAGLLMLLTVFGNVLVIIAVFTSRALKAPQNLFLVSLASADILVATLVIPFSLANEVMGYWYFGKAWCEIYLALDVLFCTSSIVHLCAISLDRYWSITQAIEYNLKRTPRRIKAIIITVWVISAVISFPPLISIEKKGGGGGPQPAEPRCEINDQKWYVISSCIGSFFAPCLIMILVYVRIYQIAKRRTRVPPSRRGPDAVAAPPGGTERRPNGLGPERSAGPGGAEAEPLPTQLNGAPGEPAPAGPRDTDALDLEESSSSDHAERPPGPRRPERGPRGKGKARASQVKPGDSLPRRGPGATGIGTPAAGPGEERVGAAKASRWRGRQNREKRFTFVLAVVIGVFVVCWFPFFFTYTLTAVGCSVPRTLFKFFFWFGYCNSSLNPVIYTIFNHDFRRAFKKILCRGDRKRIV
Protocol: as §1, §2, §3, §4

[1] = RSAT, NIH-3T3 cells, NA = not active, read-out: EC50 (nM) Alpha 2B
[2] = RSAT, NIH-3T3 cells, NA = not active, read-out: EC50 (nM) Alpha 2C
[3] = RSAT, NIH-3T3 cells, NA = not active, read-out: EC50 (nM) Alpha 2A

Structure (SMILES)	EC50 (alpha2B receptor) [nM]	(rel. efficacy) Alpha 2B (alpha2B receptor; RSAT)	EC50 (alpha2C receptor) [nM]	(rel. efficacy) Alpha 2C (alpha2C receptor; RSAT)	EC50 (alpha2B receptor; [1]) [nM]	EC50 (alpha2C receptor; [2]) [nM]	EC50 (alpha2A receptor) [nM]	(rel. efficacy) Alpha 2A (alpha2A receptor; RSAT)	EC50 (alpha2A receptor; [3]) [nM]
Cc1cccc(CNC2=NCCO2)c1C	2	1.09	11	0.83					
Clc1ccc(Br)cc1CNC1=NCCS1		0.9		0.56	296	1330			
COc1c(C)cccc1CNC1=NCCS1	27	0.98	187	0.97			481	0.57	
Fc1c(Cl)cccc1CNC1=NCCS1	107	1.01	535	0.7					
Fc1cccc(CNC2=NCCO2)c1	39	0.82	17	0.59					
FC(F)(F)c1ccccc1CNC1=NCCO1	31	0.97	21	0.8					
Cc1cccc(CNC2=NCCS2)c1Cl	11	1.27	32	1.03				0.4	281
Cc1c(Cl)cccc1CNC1=NCCS1	40	0.99	401	0.72					
Cc1cc(Cl)cc(CNC2=NCCS2)c1F	351	0.96	1250	0.51					
Fc1c(I)cccc1CNC1=NCCS1	6	1.0	88	1.05				1.07	589
Fc1c(Cl)cccc1CNC1=NCCO1 [drawing 19]	10	1.09	22	0.85					
Brc1ccccc1CNC1=NCCS1	29	0.84	190	0.77			2780	0.37	
Clc1ccc(Br)c(CNC2=NCCS2)c1		1.04		0.69	250	855		0.45	2270
Fc1c(CNC2=NCCS2)cccc1C(F)(F)F	184	0.99	1430	0.73					
FC(F)Oc1ccccc1CNC1=NCCO1	34	0.83	13	0.74					
COc1ccccc1CNC1=NCCO1 [drawing 17]	13.4	1.09		0.53		181			
COc1ccc(Cl)cc1CNC1=NCCS1	77	0.85		0.55		465		0.38	2250
Fc1ccc(Br)c(CNC2=NCCO2)c1	4	1.05	29	0.71					
Fc1ccc(Br)c(CNC2=NCCS2)c1	73	0.97	452	0.67					

Structure (SMILES)	EC50 (alpha2B receptor) [nM]	(rel. efficacy) Alpha 2B (alpha2B receptor; RSAT)	EC50 (alpha2C receptor) [nM]	(rel. efficacy) Alpha 2C (alpha2C receptor; RSAT)	EC50 (alpha2B receptor; [1]) [nM]	EC50 (alpha2C receptor; [2]) [nM]	EC50 (alpha2A receptor) [nM]	(rel. efficacy) Alpha 2A (alpha2A receptor; RSAT)	EC50 (alpha2A receptor; [3]) [nM]
Fc1ccc(Br)cc1CNC1=NCCS1		0.85		0.64	280	2060			
Clc1cccc(CNC2=NCCS2)c1Br	40	0.85		0.68		303			
Fc1ccc(Br)cc1CNC1=NCCO1	18	0.89		0.63		186			
Clc1ccc(Br)cc1CNC1=NCCO1	20	0.98	81	0.71					
Fc1ccc(Cl)c(F)c1CNC1=NCCO1	57	0.93		0.52		356			
Brc1cccc(CNC2=NCCS2)c1	75	0.84	459	0.5					
Brc1ccccc1CNC1=NCCO1	5	1.09	85	0.85					
COc1ccccc1CNC1=NCCS1 [drawing 16]			1550	0.74					
FC(F)(F)c1cccc(CNC2=NCCO2)c1Cl	5	0.96		0.81		189			
Cc1cc(Br)c(F)c(CNC2=NCCS2)c1		1.04		0.62	168	803			
Clc1cccc(CNC2=NCCO2)c1Cl	5	1.05	92	0.91					
FC(F)Oc1cccc(CNC2=NCCO2)c1		0.6	60	0.49	217				
Clc1cccc(CNC2=NCCS2)c1	42	0.99		0.48		504			
Clc1ccccc1CNC1=NCCS1	50	0.85		0.66		699			
Brc1cccc(CNC2=NCCO2)c1	12	1.0	83	0.59					
Clc1cccc(CNC2=NCCS2)c1Cl	28	0.94	252	0.68					
Clc1ccccc1CNC1=NCCO1	3.3	1.02	42	0.83					
FC(F)(F)c1cccc(CNC2=NCCS2)c1Cl		1.08		0.46	101	854			
